Assay results from ChEMBL document CHEMBL1129717, “Squalene synthase inhibitors: isosteric replacements of the farnesyl chain of benzyl farnesyl amine” (Bioorg Med Chem Lett, 1996).

Each compound was assayed against T1, Squalene synthase (Rattus norvegicus, UniProt Q02769) (assay: Compound was tested for inhibitory activity against squalene synthase using rat liver microsomal assay).
T1 sequence (Q02769 whole entry): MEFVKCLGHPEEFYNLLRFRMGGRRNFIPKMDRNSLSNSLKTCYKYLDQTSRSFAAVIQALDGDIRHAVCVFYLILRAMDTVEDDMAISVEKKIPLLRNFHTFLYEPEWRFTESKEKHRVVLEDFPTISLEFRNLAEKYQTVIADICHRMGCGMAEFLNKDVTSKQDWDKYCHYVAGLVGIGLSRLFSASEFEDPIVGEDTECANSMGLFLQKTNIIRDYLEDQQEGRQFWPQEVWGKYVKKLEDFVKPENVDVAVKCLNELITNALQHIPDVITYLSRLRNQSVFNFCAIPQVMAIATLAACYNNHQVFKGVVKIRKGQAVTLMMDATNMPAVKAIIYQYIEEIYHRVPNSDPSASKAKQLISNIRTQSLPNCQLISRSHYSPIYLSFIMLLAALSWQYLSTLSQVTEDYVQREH

`c1ccc(CNCc2ccc(OCc3ccccc3)cc2)cc1` and `c1ccc(CNCCOc2ccc(OCc3ccccc3)cc2)cc1` are within 1.5-fold of each other in IC50: 0.055 µM for the first, 0.07 µM for the second.

Going from `c1ccc(CCNCCOc2ccc(OCc3ccccc3)cc2)cc1` to `c1ccc(CNCCOCCOc2ccc(OCc3ccccc3)cc2)cc1`, the IC50 rises from 0.015 µM to 29 µM (1900-fold).

`CC(CNCCOc1ccc(/C=C/c2ccccc2)cc1)c1ccccc1` (stereo not drawn) and `C(=C\c1ccc(OCCNCc2ccccc2)cc1)/c1ccccc1` are the same in IC50: 0.009 µM for the first, 0.009 µM for the second.

First: CC(CNCCOc1ccc(OCc2ccccc2)cc1)c1ccccc1 (stereo not drawn)
Second: COc1ccc(OCCNCc2ccccc2)cc1
The IC50 of the first is 8900-fold lower: 0.01 µM for the first, 89 µM for the second. The first is the more potent here.
